# Assay results: publication PMC3919815, “Anti-Tumor Effects of Novel 5-O-Acyl Plumbagins Based on the Inhibition of Mammalian DNA Replicative Polymerase Activity” (PLoS ONE, 2014)
# Key:
# [1] = tested on: HCT116 (colon cancer); test: Cancer cell viability, MTT assay; assay type: cell-based, human; settings: 48 h, MTT; for suppression of cell proliferation: Fig. 5
# Method: The following human cancer cell lines were obtained from the American Type Culture Collection (Manassas, VA, USA): lung (A549), prostate (DU145 and PC3), colon (HCT116 and HT-29), cervix (HeLa), hepatocellular liver (HepG2), breast (MCF-7), and pancreatic cancer (PANC-1). These cells were cultured in RPMI 1640 medium supplemented with 10% fetal bovine serum, penicillin (100 units/mL), streptomycin (100 µg/mL), and 1.6 mg/mL NaHCO3 at 37°C in a humid atmosphere of 5% CO2/95% air. For the cell viability assay, cells were seeded at 1×10^3 cells/well in a 96-well microplate with various concentrations of the test compounds, and incubated for 48 h. MTT (3-(4,5-dimethylthiazol-2-yl)-2,5-diphenyl tetrazolium bromide) solution was added to a final concentration 0.6 mg/mL in Milli-Q purified water for 2 h, after which time the medium was discarded and the cells lysed in DMSO. A540 was then measured in a microplate reader (Model 680, Bio-Rad Laboratories, Hercules, CA, USA).
# [2] = tested on: HT-29 solid tumors; test: In vivo anti-tumor assay; design: species or system nude mice; settings: at 40 days; 5 mg/kg subcutaneously in PBS, versus PBS control; n = 6
# Text: Male BALB/c nu/nu mice at 5 week of age (18 g) were purchased from Japan SLC, Inc. (Shizuoka, Japan). Mice receiving standard laboratory chow and water ad libitum were acclimatized for 1 week before inoculation with cancer cells. For in vivo experiments, human colon HT-29 cells (1×10^7 cells/mouse) were subcutaneously injected into nude mice. Mice bearing solid tumors that had grown to approximately 100 mm^3 in volume (tumor volume = length×width×height) at 12 days after implantation were used for the assessment of anti-tumor effects. They were divided randomly into five groups (n = 6/group). One of the five groups was a control group injected with 0.1 mL of phosphate buffered saline (PBS) alone, and other groups were injected with vitamin K3 (3), juglone (4), C18:1-acyl juglone (5f), and C18:1-acyl plumbagin (2f) dissolved in PBS at a dose of 5 mg/kg. The above administrations all took place between days 12–39 subsequent to implantation. All mice were injected subcutaneously 14 times at […] with the compound and PBS alone (control). Tumor growth was measured at 1-day intervals for 40 days after implantation. At the end of the in vivo anti-tumor assay, some mice treated with the test compounds and PBS were independently examined to observe major organs such as lung, heart, spleen, stomach, liver, pancreas, kidney, intestine, and brain.
# [3] = tested on: pol α; design: method as in PMID 10942777; settings: cited from earlier work
# [4] = tested on: pol δ; design: method as in PMID 10942777; settings: cited from earlier work
# [5] = tested on: pol ε; design: method as in PMID 10942777; settings: cited from earlier work
# [6] = biological target: T1, Human pol λ (Homo sapiens, UniProt Q9UGP5); test: DNA polymerase activity inhibition; assay type: biochemical; settings: 10 µM compound; Fig. 4
# T1 construct: His tag; made in house
# T1 sequence (Q9UGP5 1-575): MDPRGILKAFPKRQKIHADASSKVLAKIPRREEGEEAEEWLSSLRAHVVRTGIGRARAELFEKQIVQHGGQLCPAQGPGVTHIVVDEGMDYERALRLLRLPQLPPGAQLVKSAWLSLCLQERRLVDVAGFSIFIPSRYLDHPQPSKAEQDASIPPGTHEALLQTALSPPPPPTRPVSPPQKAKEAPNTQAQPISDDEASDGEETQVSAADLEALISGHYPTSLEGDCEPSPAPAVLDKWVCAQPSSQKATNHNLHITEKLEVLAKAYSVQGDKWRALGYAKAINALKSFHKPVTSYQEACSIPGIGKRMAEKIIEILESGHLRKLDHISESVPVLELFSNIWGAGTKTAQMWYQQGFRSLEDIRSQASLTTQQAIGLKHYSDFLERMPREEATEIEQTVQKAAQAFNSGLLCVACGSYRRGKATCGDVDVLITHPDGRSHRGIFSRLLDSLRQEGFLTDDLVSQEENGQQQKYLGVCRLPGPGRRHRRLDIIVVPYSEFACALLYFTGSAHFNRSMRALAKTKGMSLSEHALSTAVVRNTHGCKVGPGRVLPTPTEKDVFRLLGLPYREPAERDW
# Text: (§1) Pol α was purified from calf thymus by immunoaffinity column chromatography as described by Tamai et al.. Recombinant rat pol β was purified from Escherichia coli JMpβ5 as described by Date et al.. The human pol γ catalytic gene was cloned into pFastBac. Histidine-tagged enzyme was expressed using the BACTO-BAC HT Baculovirus Expression System according to the manufacturer's instructions (Life Technologies, Frederick, MD, USA) and purified using ProBound resin (Invitrogen Japan, Tokyo Japan). Human pols δ and ε were purified by nuclear fractionation of human peripheral blood cancer cells (Molt-4) using the second subunit of pol δ and ε-conjugated affinity column chromatography, respectively. A truncated form of human pol η (residues 1–511) tagged with His6 at its C-terminal was expressed in E. coli cells and purified as described by Kusumoto et al.. A recombinant mouse pol ι tagged with His6 at its C-terminal was expressed and purified by Ni–NTA column chromatography. A truncated form of pol κ (residues 1–560) with 6× His-tags attached at the C-terminus was overexpressed in E. coli and purified as described by Ohashi et al.. Recombinant human His-pol λ was overexpressed and purified according to a method described by Shimazaki et al.. Recombinant human His-pol μ was overexpressed in E. coli BL21 and purified using Glutathione Sepharose 4B (GE Healthcare Bio-Science Corp., Piscataway, NJ, USA) column chromatography according to the method for pol λ preparation by Shimazaki et al.. Pol α from a higher plant, cauliflower, was purified from the inflorescence structure according to the methods outlined by Sakaguchi et al.. Recombinant rice (Oryza sativa L. cv. Nipponbare) pol λ tagged with His6 at the C-terminus was expressed in E. coli and purified as described by Uchiyama et al.. Calf TdT, Taq pol, T4 pol, T7 RNA polymerase, and T4 polynucleotide kinase were purchased from Takara Bio Inc. (Kyoto, Japan). The Klenow fragment of pol I from E. coli was purchased from Worthington Biochemical Corp. (Freehold, NJ, USA). Bovine pancreas deoxyribonuclease I was obtained from Stratagene Cloning Systems (La Jolla, CA, USA).
# (§2) The reaction mixtures for calf pol α, rat pol β, plant pol α, and prokaryotic pols have been described previously, [35]; those for pol γ as well as pols δ and ε were previously described by Umeda et al. and Ogawa et al., respectively. Those for pols η, ι, and κ were the same as for pol α, and those for pols λ and μ were the same as for pol β. For the pol reactions, poly(dA)/oligo(dT)18 (A/T, 2/1) and dTTP were used as the DNA template-primer substrate and nucleotide (dNTP; 2′-deoxynucleoside-5′-triphosphate) substrate, respectively. For the TdT reactions, oligo(dT)18 (3′-OH) and dTTP were used as the DNA primer substrate and nucleotide substrate, respectively.
# (§3) The chemically synthesized 5-O-acyl plumbagins (2a–j) were dissolved in distilled dimethyl sulfoxide (DMSO) to various concentrations and sonicated for 30 s. Subsequently, 4 µL aliquots were mixed with 16 µL of each enzyme (0.05 units) in 50 mM Tris-HCl at pH 7.5, containing 1 mM dithiothreitol, 50% glycerol (by vol), and 0.1 mM ethylenediaminetetraacetic acid and held at 0°C for 10 min. These inhibitor-enzyme mixtures in 8 µL volumes were next added to 16 µL of enzyme standard reaction mixture and incubated at 37°C for 60 min, except for Taq pol, which was incubated at 74°C for 60 min. Activity without inhibitor was considered 100%, and the relative activity was determined for each inhibitor concentration. One unit of pol activity was defined as the amount of each enzyme that catalyzed the incorporation of 1 nmol dTTP into synthetic DNA template primers in 60 min, at 37°C, and under standard reaction conditions, [35].
# [7] = biological target: T2, Human pol κ (Homo sapiens, UniProt Q9UBT6); test: DNA polymerase activity inhibition; assay type: biochemical; settings: 10 µM compound; Fig. 4
# T2 construct: A truncated form of pol κ (residues 1–560) with 6× His-tags attached at the C-terminus; 6× His (C); made in house; host or cells: E. coli
# T2 sequence (Q9UBT6 1-560): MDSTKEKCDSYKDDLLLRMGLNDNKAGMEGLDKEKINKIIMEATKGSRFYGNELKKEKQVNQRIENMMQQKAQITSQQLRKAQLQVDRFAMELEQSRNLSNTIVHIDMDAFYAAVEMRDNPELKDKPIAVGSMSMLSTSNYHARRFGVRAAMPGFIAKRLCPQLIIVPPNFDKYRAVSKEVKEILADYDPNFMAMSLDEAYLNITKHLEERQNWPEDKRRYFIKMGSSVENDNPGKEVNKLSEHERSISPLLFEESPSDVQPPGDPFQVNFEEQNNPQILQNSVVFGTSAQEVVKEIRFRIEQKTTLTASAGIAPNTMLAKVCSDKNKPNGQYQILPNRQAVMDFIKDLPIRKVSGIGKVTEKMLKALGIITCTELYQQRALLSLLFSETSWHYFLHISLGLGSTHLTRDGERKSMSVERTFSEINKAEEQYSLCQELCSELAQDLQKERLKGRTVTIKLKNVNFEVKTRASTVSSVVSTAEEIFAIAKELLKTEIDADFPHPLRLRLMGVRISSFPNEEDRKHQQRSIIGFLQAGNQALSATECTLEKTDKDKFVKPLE
# Text: as §1, §2, §3
# [8] = tested on: calf thymus dsDNA; test: Thermal transition of dsDNA; assay type: binding; settings: 15 µM compound (positive control); 6 µg/mL DNA, 0.1 M Na-phosphate buffer pH 7.0
# Method: Thermal transition profiles of dsDNA to single-stranded DNA with or without test compound were obtained with a spectrophotometer (UV-2500; Shimadzu Corp., Kyoto, Japan) equipped with a thermoelectric cell holder according to previous methods. Calf thymus DNA (6 µg/mL) was dissolved in 0.1 M sodium phosphate buffer (pH 7.0) containing 1% DMSO. The solution temperature was equilibrated to 75°C for 10 min, and then increased by 1°C at 2-min intervals for each measurement point. Any change in the absorbance (260 nm) of the compound itself at each temperature point was automatically subtracted from that of DNA plus the compound in the spectrophotometer.
# [9] = biological target: T3, Calf pol α (Bos taurus, UniProt A0AAA9TD94); test: DNA polymerase activity inhibition; assay type: biochemical; settings: 10 µM compound; Fig. 4
# T3 construct: from tissue; host or cells: calf thymus
# Text: as §1, §2, §3
# [10] = Stability under basic conditions (Triton B, UV-vis); assay type: physicochemical; settings: 1 equivalent Triton B in 1,4-dioxane and MeOH, 1.1×10^−3 M, 25°C
# Method: A 2.2×10^−2 M solution of Triton B in MeOH was added to a 2.2×10^−2 M solution of each sample in 1,4-dioxane. Then, the mixture was diluted with 1,4-dioxane to a concentration of 1.1×10^−3 M. Then, the stability of each compound was monitored by UV-vis spectroscopy. UV-vis spectra were measured at 25°C on a UV-vis spectrophotometer (JASCO V-650, Tokyo, Japan). For comparison, UV-vis spectra of 1.1×10^−3 M solution of C18:1-acyl plumbagin (2f), and C18:1-acyl juglone (5f) in 1,4-dioxane and MeOH (19/1, v/v) were measured.
# T3 sequence (A0AAA9TD94 1-1441): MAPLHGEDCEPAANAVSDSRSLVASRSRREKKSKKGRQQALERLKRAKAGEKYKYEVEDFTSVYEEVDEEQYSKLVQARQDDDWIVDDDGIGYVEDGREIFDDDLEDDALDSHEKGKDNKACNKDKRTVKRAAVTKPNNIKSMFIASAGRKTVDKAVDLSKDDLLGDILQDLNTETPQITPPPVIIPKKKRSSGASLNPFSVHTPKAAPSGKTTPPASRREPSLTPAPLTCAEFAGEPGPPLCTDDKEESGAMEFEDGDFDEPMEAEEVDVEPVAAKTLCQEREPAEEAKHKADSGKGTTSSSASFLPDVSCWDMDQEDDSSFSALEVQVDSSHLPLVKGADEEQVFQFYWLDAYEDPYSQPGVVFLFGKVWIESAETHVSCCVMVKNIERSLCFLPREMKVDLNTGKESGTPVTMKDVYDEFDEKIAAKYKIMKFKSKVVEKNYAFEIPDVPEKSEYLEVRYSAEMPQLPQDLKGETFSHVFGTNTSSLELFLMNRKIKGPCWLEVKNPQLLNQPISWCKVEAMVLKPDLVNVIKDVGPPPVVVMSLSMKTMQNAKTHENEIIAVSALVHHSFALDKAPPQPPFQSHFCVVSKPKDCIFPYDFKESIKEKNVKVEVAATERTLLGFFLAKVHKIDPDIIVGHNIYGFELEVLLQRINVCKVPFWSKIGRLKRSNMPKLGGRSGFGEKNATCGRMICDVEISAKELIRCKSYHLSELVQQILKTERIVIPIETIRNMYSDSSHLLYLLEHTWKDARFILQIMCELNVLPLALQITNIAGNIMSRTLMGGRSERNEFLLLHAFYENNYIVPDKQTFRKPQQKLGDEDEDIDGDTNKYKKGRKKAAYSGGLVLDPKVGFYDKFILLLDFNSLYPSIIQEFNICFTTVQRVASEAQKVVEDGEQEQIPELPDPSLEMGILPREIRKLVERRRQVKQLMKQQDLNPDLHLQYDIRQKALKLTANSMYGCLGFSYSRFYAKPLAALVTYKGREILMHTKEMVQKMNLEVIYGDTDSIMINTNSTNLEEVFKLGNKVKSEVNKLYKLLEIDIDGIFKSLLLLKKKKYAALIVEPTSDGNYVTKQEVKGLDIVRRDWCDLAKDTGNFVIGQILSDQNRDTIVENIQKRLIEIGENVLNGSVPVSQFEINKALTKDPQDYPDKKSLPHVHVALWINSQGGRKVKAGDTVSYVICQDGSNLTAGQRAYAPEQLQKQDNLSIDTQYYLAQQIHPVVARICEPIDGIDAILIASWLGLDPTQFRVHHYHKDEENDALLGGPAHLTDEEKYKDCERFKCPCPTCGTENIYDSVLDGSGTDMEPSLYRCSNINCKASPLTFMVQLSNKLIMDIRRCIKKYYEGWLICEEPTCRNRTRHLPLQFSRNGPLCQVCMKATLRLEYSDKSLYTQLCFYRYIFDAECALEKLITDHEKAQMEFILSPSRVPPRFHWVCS
compound,measurement,setting,value
"CC1=CC(=O)c2c(O)cccc2C1=O [compound 1, 5-hydroxy-2-methyl-1,4-naphthoquinone, reference compound]",suppression of cell proliferation,[1]; 10 µM,did not
same,suppression of cell proliferation,[1]; 100 µM,approximately 50%
"O=C1C=CC(=O)c2c(O)cccc21 [compound 4, 5-hydroxy-1,4-naphthoquinone]",decreased rates of tumor volume,[2],9.2%
C[C@@]1(CO)[C@H](O)CC[C@@]2(C)[C@H]1CC[C@H]1C[C@@H]3C[C@@]12CC[C@]3(O)CO [aphidicolin],IC50,[3],20 µM
same,IC50,[4],13 µM
same,IC50,[5],16 µM
"CC(=O)Oc1cccc2c1C(=O)C=C(C)C2=O [2a, 5-O-acetoxy-2-methyl-1,4-naphthoquinone]",inhibition of pol λ relative activity (in words),[6],hardly inhibited
same,inhibition of pol κ relative activity (in words),[7],hardly inhibited
same,melting point,,118 to 124 °C
"CC/C=C\C/C=C\C/C=C\C/C=C\C/C=C\C/C=C\CCC(=O)Oc1cccc2c1C(=O)C=C(C)C2=O [2j, 5-O-docosahexaenoyloxy-2-methyl-1,4-naphthoquinone]",inhibition of pol λ relative activity (in words),[6],strongest inhibitor
same,inhibition of pol κ relative activity (in words),[7],strongest inhibitor
"CC[n+]1c(-c2ccccc2)c2cc(N)ccc2c2ccc(N)cc21 [EtBr, ethidium bromide]",thermal transition (Tm) of dsDNA from 75 to 90°C,[8],an obvious thermal transition was observed
"CCCCCCCCCCCCCCCCCC(=O)Oc1cccc2c1C(=O)C=C(C)C2=O [2e, 5-O-octadecanoyloxy-2-methyl-1,4-naphthoquinone]",inhibition of pol α relative activity (in words),[9],did not inhibit
same,melting point,,67 to 70 °C
"CCCCC/C=C\C/C=C\CCCCCCCC(=O)Oc1cccc2c1C(=O)C=C(C)C2=O [2g, 5-O-linoleoyloxy-2-methyl-1,4-naphthoquinone]",cell proliferation rate,"[1]; 10 µM, control = 100%",< 60%
"CC1=CC(=O)c2ccccc2C1=O [compound 3, 2-methyl-1,4-naphthoquinone]",decreased rates of tumor volume,[2],7.0%
"CCCCCCCC/C=C\CCCCCCCC(=O)Oc1cccc2c1C(=O)C=CC2=O [5f, reference compound]",stability under basic conditions (UV spectra),[10],readily decomposes under basic conditions
same,decreased rates of tumor volume,[2],10.3%
